Assay results from the supplement of paper PMC4858399.

Tests used:
[1] = tested on: Caenorhabditis elegans N2; experiment: mean nematode size ln(EXT) after 48 h, plate-adjusted (DMSO control set to 6) (ln(EXT), control-adjusted); higher = larger nematodes / less growth inhibition; settings: exposure time 48 h
Summary of the method: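 C. elegans N2 larvae, synchronised at L1, grew for 48 h at 20°C in K-medium with killed OP50, 1% DMSO and 0.5–200 µM chemical. Mean size per well was derived from natural-logged Biosort extinction after a growth model removed debris. Adjustment across plates involved subtracting the vehicle control mean and adding 6.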

[2] = tested on: Caenorhabditis elegans N2; experiment: lowest effective concentration for larval growth inhibition (size below effect threshold); higher = less potent; settings: exposure time 48 h
Summary of the method: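 Log-transformed well means of per-worm extinction, read as size on a Biosort, came from 50 C. elegans N2 L1 larvae per 96-well grown 48 h at 20°C in K-medium with killed bacteria, 1% DMSO and 0.5 to 200 µM chemical. The lowest effective concentration is the first dose at which the plate-adjusted mean size is below the threshold and stays below it at every higher dose. The threshold is 5.665.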

Structure (SMILES) | mean nematode size ln(EXT) (ln) ([1]; 0.5 µM) | mean nematode size ln(EXT) (ln) ([1]; 1 µM) | mean nematode size ln(EXT) (ln) ([1]; 5 µM) | mean nematode size ln(EXT) (ln) ([1]; 10 µM) | mean nematode size ln(EXT) (ln) ([1]; 50 µM) | mean nematode size ln(EXT) (ln) ([1]; 100 µM) | mean nematode size ln(EXT) (ln) ([1]; 200 µM) | lowest effective concentration [2] [µM]
CCCCN(CCCC)N=O [N-Nitrosodi-N-butylamine] | 6.12 | 6.07 | 5.93 | 5.97 | 5.99 | 6.08 | 5.95 | > 200
CCNc1cccc(C)c1 [N-Ethyl-3-methylaniline] | 5.68 | 5.72 | 5.59 | 5.59 | 5.63 | 5.72 | 5.63 | 200
COP(=O)(OC)O/C(C)=C/C(=O)N(C)C [Dicrotophos] | 6.11 | 6.42 | 6.04 | 6.07 | 6.05 | 6.05 | 5.85 | > 200
CCCCc1ccccc1 [Butylbenzene] | 5.65 | 5.67 | 5.69 | 5.67 | 5.53 | 5.6 | 5.75 | > 200
C=CCOC(=O)C(C)(C)OC(=O)c1cc(-n2c(=O)cc(C(F)(F)F)n(C)c2=O)ccc1Cl [Butafenacil] | 5.9 | 5.89 | 5.87 | 5.88 | 5.84 | 5.92 | 5.94 | > 200
Cc1ccc(N)c(N)c1 [3,4-Diaminotoluene] | 5.97 | 5.93 | 5.94 | 5.91 | 5.88 | 5.71 | 5.75 | > 200
CN(C)C(=S)S [Sodium dimethyldithiocarbamate] | 5.93 | 5.79 | 5.88 | 5.82 | 5.85 | 5.81 | 5.69 | > 200
c1ccc2c(c1)Nc1ccccc1S2 [Phenothiazine] | 6.07 | 6.03 | 5.92 | 5.8 | 5.55 | 5.59 | 5.99 | > 200
C=C(C)C(N)=O [Methacrylamide] | 6.05 | 5.91 | 5.89 | 5.82 | 6.01 | 5.82 | 5.86 | > 200
NS(=O)(=O)c1cc2c(cc1Cl)NCNS2(=O)=O [Hydrochlorothiazide] | 5.86 | 5.85 | 5.85 | 5.83 | 5.76 | 5.46 | 5.83 | > 200
Cc1cccc(C)c1N [2,6-Dimethylaniline] | 5.87 | 6.07 | 6.05 | 5.98 | 6 | 5.83 | 5.84 | > 200
Cc1cc(O)ccc1Cl [4-Chloro-3-methylphenol] | 5.83 | 5.8 | 5.79 | 5.82 | 5.85 | 5.78 | 5.68 | > 200
O=c1n(Cl)c(=O)n(Cl)c(=O)n1Cl [Symclosene] | 5.9 | 5.76 | 5.62 | 5.82 | 5.73 | 5.69 | 5.74 | > 200
NC1CCCCC1 [Cyclohexylamine] | 5.84 | 5.95 | 5.82 | 5.85 | 5.98 | 5.83 | 5.86 | > 200
